Test results published in ChEMBL document CHEMBL1201862, “PubChem BioAssay data set” (2004).
Activity calls are given as the source filed them.

Assays:
[1] = Trypanosoma cruzi growth suppression in host cells – NIH3T3 host cells, beta-gal luminescence, confirmation (AID 2044); type: functional, cell-based;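 further: intracellular parasites grown in NIH/3T3 mouse fibroblasts as host cells; luminescent beta-galactosidase reporter signal from transgenic T. cruzi replicating inside host cells; inhibitors lower the luminescence signal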
[2] = NIH3T3 cell viability loss – ATP luminescence, mouse fibroblasts, counter-screen, dose response (AID 2010); type: functional, cell-based;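 further: cells exposed to compound for about 90 hours before reading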
[3] = target: T1, Heat shock factor protein 1 (Mus musculus, UniProt P38532); test: decrease of HSF1-responsive luciferase luminescence – cell-based, NIH3T3, dose retest, confirmation (AID 2382); type: functional;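 further: NIH3T3 fibroblasts with HSF1-driven luciferase reporter stressed by proteasome inhibitor MG132; luminescence from HSF1-driven luciferase expression after 8 hours of MG132 stress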
T1 sequence (P38532 whole entry): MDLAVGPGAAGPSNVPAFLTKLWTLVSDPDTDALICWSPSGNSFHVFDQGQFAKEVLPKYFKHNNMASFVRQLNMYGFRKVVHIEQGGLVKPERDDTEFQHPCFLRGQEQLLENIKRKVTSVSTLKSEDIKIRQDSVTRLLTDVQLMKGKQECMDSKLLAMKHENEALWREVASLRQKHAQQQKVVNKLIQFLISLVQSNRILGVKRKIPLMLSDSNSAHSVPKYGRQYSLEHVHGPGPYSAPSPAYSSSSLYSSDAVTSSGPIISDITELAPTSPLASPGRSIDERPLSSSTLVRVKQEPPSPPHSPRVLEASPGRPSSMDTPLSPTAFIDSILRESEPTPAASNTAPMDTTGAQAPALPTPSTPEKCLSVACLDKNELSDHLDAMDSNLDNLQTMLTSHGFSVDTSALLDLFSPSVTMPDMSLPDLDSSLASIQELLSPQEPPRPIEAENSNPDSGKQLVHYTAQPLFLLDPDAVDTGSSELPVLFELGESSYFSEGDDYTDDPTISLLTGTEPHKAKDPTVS

[4] = test system: Streptococcus sp. 'group A'; test: Streptococcus pyogenes SK(-)GAS viability under kanamycin – luminescence, BacTiterGlo, confirmation, counter-screen for streptokinase expression inhibitor project, dose response (AID 1900); type: functional, organism-based
[5] = test system: Streptococcus; test: GAS UMAA2166 growth inhibition – luminescence, BacTiterGlo, counter-screen for streptokinase expression inhibitor project, dose response (AID 1915); type: functional, organism-based;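 further: potency for reduction of bacterial viability or growth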
[6] = target: T2, Streptokinase A (Streptococcus pyogenes serotype M1, UniProt P10520); test: viability-normalized secreted streptokinase activity reduction – plasminogen activation absorbance, OD405, dose response (AID 1914); type: functional, Streptococcus pyogenes M1 GAS;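 further: secreted streptokinase activity via plasminogen activation per viability signal from cell pellet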
T2 sequence (P10520 whole entry): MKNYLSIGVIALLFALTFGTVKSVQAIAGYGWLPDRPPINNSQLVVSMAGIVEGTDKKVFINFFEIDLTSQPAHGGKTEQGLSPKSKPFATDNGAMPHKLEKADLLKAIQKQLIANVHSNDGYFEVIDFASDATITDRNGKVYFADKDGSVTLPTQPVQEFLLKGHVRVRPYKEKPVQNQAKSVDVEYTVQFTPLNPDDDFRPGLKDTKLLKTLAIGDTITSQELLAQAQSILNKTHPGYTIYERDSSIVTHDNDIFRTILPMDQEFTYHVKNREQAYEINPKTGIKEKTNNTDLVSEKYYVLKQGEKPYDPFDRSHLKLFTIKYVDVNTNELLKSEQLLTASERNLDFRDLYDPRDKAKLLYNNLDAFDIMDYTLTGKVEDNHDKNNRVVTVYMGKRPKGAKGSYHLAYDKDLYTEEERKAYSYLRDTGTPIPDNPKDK

[7] = target: Cytochrome P450 2C19 (Homo sapiens, UniProt P33261); test: Cytochrome panel assay with activity outcomes. Panel member name: p450-cyp2c19 Compounds with AC50 equal or less than 10 uM are considered active; type: functional
[8] = target: T3, Cytochrome P450 1A2 (Homo sapiens, UniProt P05177);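 further: PubChem cytochrome P450 panel assay, CYP1A2 panel member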
T3 sequence (P05177 whole entry): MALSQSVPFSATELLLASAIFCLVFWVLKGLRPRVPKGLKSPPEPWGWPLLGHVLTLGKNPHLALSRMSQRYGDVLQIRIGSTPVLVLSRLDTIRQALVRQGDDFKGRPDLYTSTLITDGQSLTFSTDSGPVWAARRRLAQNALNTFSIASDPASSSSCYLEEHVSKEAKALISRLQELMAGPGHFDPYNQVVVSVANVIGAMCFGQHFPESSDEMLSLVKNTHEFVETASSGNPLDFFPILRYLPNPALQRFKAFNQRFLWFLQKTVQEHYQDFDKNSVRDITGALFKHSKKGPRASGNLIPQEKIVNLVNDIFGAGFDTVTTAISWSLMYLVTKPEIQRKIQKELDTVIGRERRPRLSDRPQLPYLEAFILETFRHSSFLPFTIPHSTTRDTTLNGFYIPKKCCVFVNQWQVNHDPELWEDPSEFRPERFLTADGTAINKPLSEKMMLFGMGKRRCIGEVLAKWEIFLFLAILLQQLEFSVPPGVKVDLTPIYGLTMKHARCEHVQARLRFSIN

Cytochrome P450 2C19, sequence (P33261 whole entry): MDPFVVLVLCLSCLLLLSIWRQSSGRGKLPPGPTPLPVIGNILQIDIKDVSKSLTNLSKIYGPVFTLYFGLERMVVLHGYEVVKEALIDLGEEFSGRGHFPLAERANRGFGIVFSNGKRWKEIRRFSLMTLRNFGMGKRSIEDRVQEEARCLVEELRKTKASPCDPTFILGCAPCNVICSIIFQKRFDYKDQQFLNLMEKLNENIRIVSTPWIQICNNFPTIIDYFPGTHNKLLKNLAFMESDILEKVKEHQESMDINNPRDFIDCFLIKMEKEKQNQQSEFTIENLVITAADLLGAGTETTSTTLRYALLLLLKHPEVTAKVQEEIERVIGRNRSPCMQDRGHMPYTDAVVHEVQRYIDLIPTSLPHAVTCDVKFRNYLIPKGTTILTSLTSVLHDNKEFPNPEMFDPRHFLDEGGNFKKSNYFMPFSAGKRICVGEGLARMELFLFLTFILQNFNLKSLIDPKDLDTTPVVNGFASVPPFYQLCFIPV

For `COc1ccc(C(=O)C2CCCN(Cc3ccc(C#CCCO)cc3)C2)cc1F` (stereo not drawn), the EC50 [1] was 0.475 µM (active) and the EC50 [2] was > 60 µM (not active).
With `O=C(CSc1nc2cc(Cl)ccc2s1)Nc1cccc(S(=O)(=O)N2CCOCC2)c1` the EC50 [3] was > 195 µM (not active).
For `CC(C)(C)N(Cc1ccccc1)C(=O)COc1cccnc1[N+](=O)[O-]`, the EC50 [4] was > 150 µM (not active), the EC50 [5] was > 150 µM (not active) and the EC50 [6] was > 150 µM (not active).
With `CN(C)/C=C/C(=O)c1ccc(-c2ccc(Cl)cc2Cl)o1` the EC50 [3] was > 195 µM (not active).
In the case of `Cc1nc(-c2ccc(Cl)cc2)sc1C1(C)CC(c2ccc(Cl)cc2)=NO1` (stereo not drawn), the EC50 [3] is reported as > 195 µM (not active).
With `COC(=O)[C@H]1[C@H]2C[C@@H]3c4[nH]c5cc(OC)ccc5c4CCN3C[C@H]2C[C@@H](OC(=O)c2ccc(N)cc2)[C@@H]1OC` the EC50 [3] was > 195 µM (not active), the EC50 [1] was 2.04 µM (active) and the EC50 [2] was > 30 µM (not active).
In the case of `COC(=O)c1cc2ccsc2n1Cc1nc(-c2ccc(Cl)cc2)oc1C`, the EC50 [3] is reported as > 195 µM (not active).
For `O=C(NC(=S)Nn1cnc2c(cnn2-c2ccccc2)c1=O)c1ccc(Oc2ccccc2)cc1`, the EC50 [5] was > 150 µM (not active) and the EC50 [6] was > 150 µM (not active).
For `Cc1ccc(CN(C(=O)c2ccco2)C2CCS(=O)(=O)C2)cc1` (stereo not drawn), the EC50 [4] was > 150 µM (not active), the EC50 [5] was > 150 µM (not active) and the EC50 [6] was > 150 µM (not active).
With `Cc1ccc(CN2CCN(Cc3cccc4c3OCO4)CC2CCO)cc1` (stereo not drawn) the EC50 [1] was 0.258 µM (active) and the EC50 [2] was > 60 µM (not active).
For `Cc1ccc(S(=O)(=O)c2c(C(=O)c3ccccc3)cnc3cc4c(cc23)OCCO4)cc1`, the EC50 [3] was > 195 µM (not active).
For `Cc1ccccc1Nc1c(-c2ccncc2)nc2ccc(Br)cn12`, the EC50 [1] was 0.832 µM (active) and the EC50 [2] was > 30 µM (not active).
For `CC1=[N+]([O-])C2(C)CCCCC2(O)[N+]([O-])=C1C` (stereo not drawn), the AC50 ([7]; read-out: AC50) was 15.8 µM (inconclusive).
For `COc1ccc(-n2c(=O)[nH]cc(C(=O)Nc3ccc4c(c3)OCCO4)c2=O)cc1`, the AC50 ([7]; read-out: AC50) was 10 µM (inconclusive).
For `Cc1ccc(CN(C(=O)Cc2cccs2)C(C(=O)NC2CCCC2)c2ccncc2)cc1` (stereo not drawn), the EC50 [1] was 2.29 µM (active) and the EC50 [2] was > 60 µM (not active).
For `CN(C)CCCNc1cnnc(O)c1Cl`, the EC50 [1] was 0.658 µM (active) and the EC50 [2] was > 30 µM (not active).
In the case of `Cc1ccccc1-c1nc2c3ccccc3nc(S)n2n1`, the EC50 [4] is reported as 14 µM (active), the EC50 [5] is reported as > 150 µM (not active) and the EC50 [6] is reported as > 150 µM (not active).
For `CCOC(=O)c1cnc(-c2ccccc2)nc1Oc1cccc(Cl)c1`, the AC50 ([7]; read-out: AC50) was 3.98 µM (inconclusive).
For `CCOC(=O)Cc1csc(NC(=O)CSc2nnc(-c3ccc(OC)cc3)n2C)n1`, the EC50 [1] was > 60 µM (not active) and the EC50 [2] was > 60 µM (not active).
With `CSc1nc(NCc2ccccc2)c2c3c(sc2n1)CN(C)CC3` the EC50 [1] was 0.208 µM (active) and the EC50 [2] was > 30 µM (not active).
For `S=C1NCN2CCN(CC2)CNC(=S)C(=S)NCN2CCN(CC2)CNC1=S`, the AC50 [8] was 3.16 µM (inconclusive).
In the case of `O=C1CC(c2nc3ccccc3[nH]2)CN1c1ccccc1F` (stereo not drawn), the EC50 [3] is reported as > 195 µM (not active).
For `O=[N+]([O-])c1ccc(Sc2nccn2Cc2ccccc2)c([N+](=O)[O-])c1`, the EC50 [1] was 3.06 µM (active) and the EC50 [2] was > 60 µM (not active).
For `Oc1ccccc1CNn1cnnc1`, the AC50 ([7]; read-out: AC50) was 0.2 µM (inconclusive).
For `COc1cccc(CNC(=O)Cn2c(=O)c3cccn3c3ccccc32)c1`, the EC50 [3] was > 195 µM (not active).
For `CCCc1c(OCCCOc2ccc(OCC(=O)O)cc2)ccc(CC=O)c1O`, the AC50 [8] was 31.6 µM (inconclusive).
In the case of `COc1cc(/C=C2/SC(=S)N(Cc3ccccc3)C2=O)ccc1O`, the EC50 [4] is reported as 3.89 µM (active), the EC50 [5] is reported as 7.59 µM (active) and the EC50 [6] is reported as > 150 µM (not active).
With `CSc1ncc(C(=O)Nc2cccnc2)c(C(F)(F)F)n1` the EC50 [3] was > 195 µM (not active).
In the case of `NC(=O)C1CCN(c2ccnc3cc(Cl)ccc23)CC1`, the EC50 [3] is reported as > 195 µM (not active).
For `Cc1ccccc1-n1cnc2c(sc3nc(N4CCOCC4)c4c(c32)CCCC4)c1=O`, the EC50 [1] was 1.8 µM (active) and the EC50 [2] was > 60 µM (not active).
For `C[C@@](N)(C(=O)O)c1cccc(CC(=O)O)c1`, the AC50 [8] was 39.8 µM (inconclusive) and the AC50 ([7]; read-out: AC50) was 20 µM (inconclusive).
For `CN(C)c1ccc(C(=S)N2CCN(S(=O)(=O)c3ccccc3)CC2)cc1`, the EC50 [1] was 2.98 µM (active) and the EC50 [2] was > 60 µM (not active).
In the case of `N#Cc1cccc(-c2nccc(NCc3cccnc3)n2)c1`, the AC50 ([7]; read-out: AC50) is reported as 20 µM (inconclusive).
For `CCn1c(=O)c(C(=O)NNC(=O)c2ccccc2)c(O)c2ccccc21`, the EC50 [4] was 7.44 µM (active), the EC50 [5] was 20.9 µM (active) and the EC50 [6] was > 150 µM (not active).
For `CNc1cc(N2CCCCCC2)ccc1[N+](=O)[O-]`, the AC50 ([7]; read-out: AC50) was 3.55 µM (inconclusive).
For `Cc1ccc(C)c(NC(=O)COc2coc(CN3CCc4ccccc4C3)cc2=O)c1`, the EC50 [3] was > 195 µM (not active).
In the case of `Oc1nc(CSc2ncnc3sccc23)nc2ccccc12`, the EC50 [4] is reported as 0.734 µM (active), the EC50 [5] is reported as 14.3 µM (active) and the EC50 [6] is reported as > 150 µM (not active).
For `COc1cc(NC(=O)c2cc3cccc(OC)c3o2)cc(C(=O)Nc2cccc(C(F)(F)F)c2)c1`, the EC50 [3] was 3.5 µM (active).
With `Cc1ccc(Cn2ncc3c(N4CCN(C)CC4)ncnc32)cc1` the EC50 [3] was > 195 µM (not active).
In the case of `O=C(Cn1cnc2c(nnn2Cc2ccc(Cl)cc2)c1=O)N1CCCc2ccccc21`, the EC50 [3] is reported as > 195 µM (not active).
For `N#CCCn1c(=O)cnc2cnc(Oc3ccccc3)nc21`, the AC50 [8] was 15.8 µM (inconclusive).
For `CC(C)NC(=O)N1CC2(CCN(C(=O)c3cc(C(F)(F)F)cc(C(F)(F)F)c3)CC2)C1`, the AC50 [8] was 12.6 µM (inconclusive).
In the case of `Nn1c(=O)c2ccccc2n2c(SCc3ccccc3)nnc12`, the EC50 [3] is reported as > 195 µM (not active).
In the case of `COc1ccc(C(Nc2ccccn2)c2c(NC(=O)c3ccco3)sc(C)c2C)cc1` (stereo not drawn), the EC50 [1] is reported as 1.86 µM (active) and the EC50 [2] is reported as > 60 µM (not active).
For `CC(=O)N(CCCc1ccc(C(C)(C)C)cc1)CCCN(C)C`, the EC50 [1] was 0.65 µM (active) and the EC50 [2] was > 60 µM (not active).
With `CCN(CC)S(=O)(=O)c1ccc(N2CCN(c3cccc(OC)c3)CC2)c([N+](=O)[O-])c1` the EC50 [1] was 1.3 µM (active) and the EC50 [2] was > 60 µM (not active).
In the case of `O=c1c(-c2cc(F)cc(F)c2)nc2cnc(N3CCOCC3)nc2n1-c1ccccc1`, the AC50 [8] is reported as 5.01 µM (inconclusive).
With `COc1ccc(C2C(=O)N(C3CCCCCC3)CC(=O)N2Cc2ccccc2)cc1OC` (stereo not drawn) the AC50 ([7]; read-out: AC50) was 39.8 µM (inconclusive).
In the case of `CCCN1C(=O)/C(=C\c2ccncc2)S/C1=N/c1ccccc1`, the EC50 [3] is reported as > 195 µM (not active).
In the case of `COc1ccc(/C=N/n2c(C)nc3c4ccccc4nc-3c2O)cc1CN1CCCC(C)(C)C1`, the EC50 [4] is reported as 10.9 µM (active), the EC50 [5] is reported as > 150 µM (not active) and the EC50 [6] is reported as > 150 µM (not active).
For `O=C(O)COc1ccc(/C=N/Nc2nc(Nc3ccccc3)nc(N3CCCCC3)n2)cc1`, the EC50 [4] was 18.2 µM (active), the EC50 [5] was 16.7 µM (active) and the EC50 [6] was > 150 µM (not active).
For `COC(=O)c1cc(=O)n(C2CC2)/c(=N/C2CC2)s1`, the AC50 [7] was “inconclusive”.
With `CC(=O)Nc1c(O)oc2ccccc2/c1=N\C(C)C` the AC50 [7] was “inconclusive”.
With `O=C(O)CCN1Cc2ccccc2C1=O` the EC50 [3] was > 195 µM (not active).
For `CC(C)Cn1c(=O)n(C)c(=O)c2[nH]cnc21` [ISOBUTYLMETHYLXANTHINE], the AC50 [8] was 20 µM (inconclusive).
